Measured values reported in publication PMC5564600 (Oncotarget, 2017).

Tests used:
Test in all cases: biochemical
Type in all cases: binding
panel of 442 kinases [1] = target: T1, panel of 442 kinases (Homo sapiens, UniProt O43353); details: kinase RIPK2; for remaining activity at 1 µM: read-out: RIPK2 (% of control at 1 µM)
T1 construct: purchased Ambit Biosciences (scanMAXX KINOMEscan)

panel of 442 kinases [2] = target: T2, panel of 442 kinases (Homo sapiens, UniProt O75716); details: kinase STK16; for remaining activity at 1 µM: read-out: STK16 (% of control at 1 µM)
T2 construct: purchased Ambit Biosciences (scanMAXX KINOMEscan)

panel of 442 kinases [3] = target: T3, panel of 442 kinases (Homo sapiens, UniProt O95382); details: ASK2; for remaining activity at 1 µM: read-out: % of control at 1 µM
T3 construct: purchased Ambit Biosciences (scanMAXX KINOMEscan)
T3 sequence (O95382 1-1288): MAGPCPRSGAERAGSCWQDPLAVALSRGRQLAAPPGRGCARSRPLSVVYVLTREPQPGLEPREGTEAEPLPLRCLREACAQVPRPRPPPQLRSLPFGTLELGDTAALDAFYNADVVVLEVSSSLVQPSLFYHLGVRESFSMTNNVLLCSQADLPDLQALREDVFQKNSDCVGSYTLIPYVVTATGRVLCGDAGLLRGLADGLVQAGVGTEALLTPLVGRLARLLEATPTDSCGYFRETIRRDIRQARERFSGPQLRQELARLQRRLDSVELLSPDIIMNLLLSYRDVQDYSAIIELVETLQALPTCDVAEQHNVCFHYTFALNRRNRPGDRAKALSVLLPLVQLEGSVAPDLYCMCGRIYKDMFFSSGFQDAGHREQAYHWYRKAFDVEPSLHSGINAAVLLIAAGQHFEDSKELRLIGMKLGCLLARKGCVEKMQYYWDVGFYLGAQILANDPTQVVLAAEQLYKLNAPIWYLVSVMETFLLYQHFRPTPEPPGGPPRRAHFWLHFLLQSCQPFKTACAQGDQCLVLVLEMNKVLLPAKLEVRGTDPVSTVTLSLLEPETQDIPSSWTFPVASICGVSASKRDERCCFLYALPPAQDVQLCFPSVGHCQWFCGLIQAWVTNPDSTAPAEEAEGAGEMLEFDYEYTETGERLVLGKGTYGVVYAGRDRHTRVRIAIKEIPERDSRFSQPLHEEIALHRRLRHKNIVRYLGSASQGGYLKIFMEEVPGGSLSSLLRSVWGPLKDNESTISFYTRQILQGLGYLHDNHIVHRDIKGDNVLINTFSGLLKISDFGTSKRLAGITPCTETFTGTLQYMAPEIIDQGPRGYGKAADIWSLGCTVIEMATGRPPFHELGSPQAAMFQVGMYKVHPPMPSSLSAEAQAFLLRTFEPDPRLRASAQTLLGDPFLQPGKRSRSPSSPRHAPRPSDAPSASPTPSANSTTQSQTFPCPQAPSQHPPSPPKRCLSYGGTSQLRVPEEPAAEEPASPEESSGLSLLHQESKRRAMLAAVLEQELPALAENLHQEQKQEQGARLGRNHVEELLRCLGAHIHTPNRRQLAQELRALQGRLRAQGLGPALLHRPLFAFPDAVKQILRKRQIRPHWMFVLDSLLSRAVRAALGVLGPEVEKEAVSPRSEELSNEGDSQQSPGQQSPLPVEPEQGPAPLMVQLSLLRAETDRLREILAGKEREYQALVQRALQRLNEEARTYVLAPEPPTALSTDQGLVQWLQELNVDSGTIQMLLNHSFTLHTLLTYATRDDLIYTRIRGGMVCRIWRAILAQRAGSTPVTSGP

panel of 442 kinases [4] = target: T4, panel of 442 kinases (Homo sapiens, UniProt P0C264); details: kinase SgK110; for remaining activity at 1 µM: read-out: SgK110 (% of control at 1 µM)
T4 construct: purchased Ambit Biosciences (scanMAXX KINOMEscan)
T4 sequence (P0C264 1-359): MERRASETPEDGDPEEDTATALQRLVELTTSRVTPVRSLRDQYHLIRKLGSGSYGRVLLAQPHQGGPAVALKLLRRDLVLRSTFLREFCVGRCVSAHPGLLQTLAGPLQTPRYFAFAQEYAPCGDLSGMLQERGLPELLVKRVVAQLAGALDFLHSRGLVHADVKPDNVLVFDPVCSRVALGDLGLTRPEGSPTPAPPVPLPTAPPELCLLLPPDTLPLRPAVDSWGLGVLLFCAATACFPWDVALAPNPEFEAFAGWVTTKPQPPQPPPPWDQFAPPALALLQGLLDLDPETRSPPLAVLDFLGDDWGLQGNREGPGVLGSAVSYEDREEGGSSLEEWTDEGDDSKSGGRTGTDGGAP

panel of 442 kinases [5] = target: T5, panel of 442 kinases (Homo sapiens, UniProt P48729); details: CSNK1A1; for remaining activity at 1 µM: read-out: % of control at 1 µM
T5 construct: purchased Ambit Biosciences (scanMAXX KINOMEscan)

panel of 442 kinases [6] = target: T6, panel of 442 kinases (Homo sapiens, UniProt Q15569); details: kinase TESK1; for remaining activity at 1 µM: read-out: TESK1 (% of control at 1 µM)
T6 construct: purchased Ambit Biosciences (scanMAXX KINOMEscan)

panel of 442 kinases [7] = target: T7, panel of 442 kinases (Homo sapiens, UniProt Q9UPE1); details: kinase SRPK3; for remaining activity at 1 µM: read-out: SRPK3 (% of control at 1 µM)
T7 construct: purchased Ambit Biosciences (scanMAXX KINOMEscan)

panel of 442 kinases [8] = target: T8, panel of 442 kinases (Homo sapiens, UniProt P48736); details: kinase PIK3CG; 1 µM; read-out: % of control at 1 µM
T8 construct: purchased Ambit Biosciences (scanMAXX KINOMEscan)

[9] = 10 µM, read-out: % of control at 10 µM

T5 sequence (P48729 whole entry): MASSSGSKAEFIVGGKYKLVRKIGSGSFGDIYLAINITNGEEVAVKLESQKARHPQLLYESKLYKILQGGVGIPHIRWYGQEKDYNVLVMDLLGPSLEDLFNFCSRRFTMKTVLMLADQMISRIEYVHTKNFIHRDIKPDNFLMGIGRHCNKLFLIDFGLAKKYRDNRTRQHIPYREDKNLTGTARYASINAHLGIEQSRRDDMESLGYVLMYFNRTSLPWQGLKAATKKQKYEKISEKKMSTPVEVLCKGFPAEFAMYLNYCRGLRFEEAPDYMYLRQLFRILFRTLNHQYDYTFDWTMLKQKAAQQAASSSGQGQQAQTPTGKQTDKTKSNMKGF
T8 sequence (P48736 whole entry): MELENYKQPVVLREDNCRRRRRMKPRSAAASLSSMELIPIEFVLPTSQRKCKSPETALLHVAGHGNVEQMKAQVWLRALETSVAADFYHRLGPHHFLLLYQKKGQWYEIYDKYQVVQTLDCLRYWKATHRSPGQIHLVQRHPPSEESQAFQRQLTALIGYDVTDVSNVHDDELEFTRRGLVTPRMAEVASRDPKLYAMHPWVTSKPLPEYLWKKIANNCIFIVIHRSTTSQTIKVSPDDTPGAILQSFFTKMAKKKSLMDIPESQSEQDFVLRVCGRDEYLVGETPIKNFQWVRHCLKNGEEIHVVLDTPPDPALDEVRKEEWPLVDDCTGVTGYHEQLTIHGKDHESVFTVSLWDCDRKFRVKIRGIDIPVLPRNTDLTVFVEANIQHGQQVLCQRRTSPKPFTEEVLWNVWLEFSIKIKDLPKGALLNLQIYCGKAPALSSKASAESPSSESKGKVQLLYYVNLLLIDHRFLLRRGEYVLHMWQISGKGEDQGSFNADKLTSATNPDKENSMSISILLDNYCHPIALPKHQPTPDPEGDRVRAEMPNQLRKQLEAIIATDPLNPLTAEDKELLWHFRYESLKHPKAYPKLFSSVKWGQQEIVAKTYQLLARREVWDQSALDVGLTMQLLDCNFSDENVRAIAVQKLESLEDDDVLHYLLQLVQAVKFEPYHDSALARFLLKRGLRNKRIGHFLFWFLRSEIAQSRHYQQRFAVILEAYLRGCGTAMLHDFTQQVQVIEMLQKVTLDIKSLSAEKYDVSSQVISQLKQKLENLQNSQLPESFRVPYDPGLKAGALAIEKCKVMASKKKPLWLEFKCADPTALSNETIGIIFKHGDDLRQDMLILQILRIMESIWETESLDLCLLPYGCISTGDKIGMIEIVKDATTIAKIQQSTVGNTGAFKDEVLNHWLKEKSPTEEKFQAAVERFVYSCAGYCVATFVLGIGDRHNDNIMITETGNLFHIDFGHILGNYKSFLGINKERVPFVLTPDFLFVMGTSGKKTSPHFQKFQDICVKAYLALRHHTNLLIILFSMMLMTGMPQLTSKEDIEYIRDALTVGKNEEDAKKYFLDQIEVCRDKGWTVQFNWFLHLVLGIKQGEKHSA
T1 sequence (O43353 whole entry): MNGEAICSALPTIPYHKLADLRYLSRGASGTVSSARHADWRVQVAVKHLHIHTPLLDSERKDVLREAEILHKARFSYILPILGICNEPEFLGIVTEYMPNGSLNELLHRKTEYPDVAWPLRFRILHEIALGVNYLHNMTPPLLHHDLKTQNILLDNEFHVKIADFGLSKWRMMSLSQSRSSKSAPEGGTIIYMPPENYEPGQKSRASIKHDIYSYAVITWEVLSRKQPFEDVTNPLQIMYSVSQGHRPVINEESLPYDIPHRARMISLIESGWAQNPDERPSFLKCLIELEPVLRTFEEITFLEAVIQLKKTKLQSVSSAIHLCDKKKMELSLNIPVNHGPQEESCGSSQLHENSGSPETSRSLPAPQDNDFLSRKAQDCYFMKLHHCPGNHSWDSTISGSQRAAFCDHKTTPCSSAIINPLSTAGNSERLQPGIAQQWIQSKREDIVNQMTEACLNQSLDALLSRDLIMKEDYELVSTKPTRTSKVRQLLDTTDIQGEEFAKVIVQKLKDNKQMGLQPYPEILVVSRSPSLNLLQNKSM
T6 sequence (Q15569 whole entry): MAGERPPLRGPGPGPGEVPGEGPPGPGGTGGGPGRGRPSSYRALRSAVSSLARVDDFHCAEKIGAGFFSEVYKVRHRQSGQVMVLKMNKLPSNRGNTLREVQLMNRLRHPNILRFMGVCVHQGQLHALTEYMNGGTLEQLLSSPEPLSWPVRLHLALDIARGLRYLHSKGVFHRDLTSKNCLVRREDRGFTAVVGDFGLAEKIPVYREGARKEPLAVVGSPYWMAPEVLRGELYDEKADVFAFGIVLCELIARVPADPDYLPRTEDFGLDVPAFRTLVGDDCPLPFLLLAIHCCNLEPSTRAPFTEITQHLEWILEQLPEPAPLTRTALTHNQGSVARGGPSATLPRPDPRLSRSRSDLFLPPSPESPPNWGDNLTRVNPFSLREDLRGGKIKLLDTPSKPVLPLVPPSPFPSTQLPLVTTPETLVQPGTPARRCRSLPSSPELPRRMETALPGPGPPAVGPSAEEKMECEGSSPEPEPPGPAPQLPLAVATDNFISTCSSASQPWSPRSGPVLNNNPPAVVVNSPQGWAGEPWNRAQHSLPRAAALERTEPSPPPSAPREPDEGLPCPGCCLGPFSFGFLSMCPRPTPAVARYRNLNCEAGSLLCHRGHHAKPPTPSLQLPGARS
T2 sequence (O75716 whole entry): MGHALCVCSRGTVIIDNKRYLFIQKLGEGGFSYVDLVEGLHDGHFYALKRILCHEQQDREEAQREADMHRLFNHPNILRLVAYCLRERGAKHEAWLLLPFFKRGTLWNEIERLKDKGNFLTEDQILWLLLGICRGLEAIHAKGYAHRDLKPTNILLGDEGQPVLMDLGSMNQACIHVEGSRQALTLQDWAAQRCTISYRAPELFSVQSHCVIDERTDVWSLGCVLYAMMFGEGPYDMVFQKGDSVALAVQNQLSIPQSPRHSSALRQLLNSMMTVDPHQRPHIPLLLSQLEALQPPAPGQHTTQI
T7 sequence (Q9UPE1 whole entry): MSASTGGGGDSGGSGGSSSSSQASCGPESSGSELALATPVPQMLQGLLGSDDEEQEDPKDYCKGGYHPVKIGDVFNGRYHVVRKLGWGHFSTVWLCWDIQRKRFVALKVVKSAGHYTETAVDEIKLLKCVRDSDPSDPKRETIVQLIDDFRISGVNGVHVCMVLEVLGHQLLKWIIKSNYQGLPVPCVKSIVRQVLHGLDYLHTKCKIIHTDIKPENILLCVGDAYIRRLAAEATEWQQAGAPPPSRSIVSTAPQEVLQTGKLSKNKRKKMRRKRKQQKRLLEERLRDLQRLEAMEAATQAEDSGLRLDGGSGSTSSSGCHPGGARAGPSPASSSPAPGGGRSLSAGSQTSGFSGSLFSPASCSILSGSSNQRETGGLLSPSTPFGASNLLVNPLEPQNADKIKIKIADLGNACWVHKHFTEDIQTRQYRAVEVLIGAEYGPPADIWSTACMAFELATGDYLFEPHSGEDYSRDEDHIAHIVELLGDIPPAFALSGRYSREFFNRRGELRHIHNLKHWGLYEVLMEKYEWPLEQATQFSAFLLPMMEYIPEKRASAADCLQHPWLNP

| SMILES | remaining activity at 1 µM (panel of 442 kinases [1]) | remaining activity at 10 µM (panel of 442 kinases [1]; 10 µM, read-out: RIPK2 (% of control at 10 µM)) | remaining activity at 1 µM (panel of 442 kinases [2]) | remaining activity at 10 µM (panel of 442 kinases [2]; 10 µM, read-out: STK16 (% of control at 10 µM)) | remaining activity at 1 µM (panel of 442 kinases [3]) | remaining activity at 10 µM (panel of 442 kinases [3]; [9]) | remaining activity at 1 µM (panel of 442 kinases [4]) | remaining activity at 10 µM (panel of 442 kinases [4]; 10 µM, read-out: SgK110 (% of control at 10 µM)) | remaining activity at 1 µM (panel of 442 kinases [5]) | remaining activity at 10 µM (panel of 442 kinases [5]; [9]) | remaining activity at 1 µM (panel of 442 kinases [6]) | remaining activity at 10 µM (panel of 442 kinases [6]; 10 µM, read-out: TESK1 (% of control at 10 µM)) | remaining activity at 1 µM (panel of 442 kinases [7]) | remaining activity at 10 µM (panel of 442 kinases [7]; 10 µM, read-out: SRPK3 (% of control at 10 µM)) | remaining activity at 1 µM (panel of 442 kinases [8]) |
| --- | --- | --- | --- | --- | --- | --- | --- | --- | --- | --- | --- | --- | --- | --- | --- |
| Nc1cc(C(F)(F)F)c(-c2cc(N3CCOCC3)nc(N3CCOCC3)n2)cn1 [Buparlisib] | 100% | 100% | 100% | 92% | 87% | 100% | 91% | 100% | 88% | 100% | 92% | 100% | 100% | 100% |  |
| Cn1c(=O)n(-c2ccc(C(C)(C)C#N)cc2)c2c3cc(-c4cnc5ccccc5c4)ccc3ncc21 [Dactolisib, 2-methyl-2-[4-(3-methyl-2-oxo-8-quinolin-3-yl-2,3-dihydroimidazo[4,5-c]quinolin-1-yl)-phenyl] propionitrile] | 37% |  | 100% |  | 90% |  | 100% |  | 99% |  | 100% |  | 91% |  | 38% |
| COc1ncc(-c2ccc3nccc(-c4ccnnc4)c3c2)cc1NS(=O)(=O)c1ccc(F)cc1F [Omipalisib] | 59% |  | 42% |  | 91% |  | 100% |  | 100% |  | 73% |  | 100% |  | 0% |
| FC(F)c1nc2ccccc2n1-c1nc(N2CCOCC2)nc(N2CCOCC2)n1 [ZSTK474, 2-(difluoromethyl)-1-[4,6-di(4-morpholinyl)-1,3,5-triazin-2-yl]-1H-benzimidazole] | 83% |  | 100% |  | 97% |  | 100% |  | 91% |  | 96% |  | 100% |  | 0% |
